The text below walks through data of patent publication US10092657B2, “Opsonized β-glucan preparations and methods” (Biothera, Inc., priority 2011, dated 2018).

Assay [1] concerns human monocytes. Put plainly: Binding of PGG β-glucan to human monocytes within PBMC (BfD IV staining, flow cytometry). The class given is cell-based. On the procedure:
Enriched neutrophils or PBMC were resuspended at 1×10^6 cells/mL in RPMI 1640 supplemented with 10% serum. PGG β-glucan at hexose concentrations 100 μg/mL, 200 μg/mL, or 400 μg/mL were added to neutrophils or PBMC and incubated in a 37° C., 5% CO2 humidified incubator for two hours. After incubation, cells were washed twice with FACS buffer (HBSS supplemented with 1% FBS and 0.1% sodium azide) to remove any unbound β-glucan, and subsequently treated with Fc block (Miltenyi Biotec, Auburn, Calif.). […] Cells were then incubated with FITC-conjugated F(ab′)2 goat anti-mouse IgM for 30 minutes at 4° C. and washed once with cold FACS buffer before fixing with 1% paraformaldehyde. In early optimization experiments, neutrophils, monocytes, and T cells were identified by staining with fluorescently labeled anti-CD 15, anti-CD 14, or anti-CD3 Abs, respectively. Events were collected on a LSRII flow cytometer (BD Biosciences, San Jose, Calif.) and analysis was performed using FLOWJO (Tree Star, Ashland, Oreg.). […] Surface binding of DTAF-conjugated β-glucan was subsequently assessed by flow cytometric analysis. […] The experiments to determine binding of PGG β-glucan at 200 μg/mL to neutrophils or at 100 μg/mL to PBMC were performed as described above with the following changes. For determining serum dependency, PGG β-glucan was incubated with neutrophils or PBMC resuspended in RPMI 1640 containing 2%, 5%, or 10% autologous serum at 37° C. for two hours. For time-course experiments, PGG β-glucan at indicated concentrations was incubated with cells resuspended in 10% autologous serum at 37° C. for 10 minutes, 20 minutes, 60 minutes, or 120 minutes. For temperature dependency experiments, PGG β-glucan at indicated concentrations was incubated with cells resuspended in 10% autologous serum for two hours at 4° C., room temperature, or 37° C.

In assay [2] the test system is human neutrophils. Put plainly: Binding studies on the role of complement proteins in serum, neutrophils. The class given is cell-based. On the procedure: Heat-inactivated (HI) serum was prepared by incubating serum in a 56° C. water bath for 30 minutes. […] Treatment of serum with methylamine (MA) was done by incubating serum with 0.67% of methylamine for 2.5 hours at 37° C., followed by three washes with DPBS using Amicon centrifugal filter unit with a 3K MW cut-off (Millipore, Billerica, Mass.). DPBS-treated serum was prepared in the same manner and used as control serum for MA-treated serum. For blocking of factor D in the serum, 166-32 at concentration 20 μg/mL was incubated with serum on ice for 30 minutes, and then used for binding studies. For binding experiments in the presence of EGTA or MgEGTA, serum was incubated with 10 mM EGTA with or without 10 mM MgCl2 for 10 minutes at room temperature. The untreated and EGTA/MgEGTA-treated serum was then used to pre-treat PGG and perform binding studies as described earlier.

[3] abbreviates: 2%, 5% or 10% autologous serum, 37° C., two hours.

In the case of “β(1,6)-[poly-1,3)-D-glucopyranosyl]-poly-β(1,3)-D-glucopyranose [PGG β-glucan]”, the “Minimum concentration of β-glucan detected on the cells by the BfD IV detection system” value in assay [1] came to 100 µg/mL. Besides, in assay [1] (100 μg/mL, 10% serum, 37° C.), the “Incubation time of maximal binding” value lay within 60 to 120 min. Besides, in assay [1] (setting [3]), the “Percentage of serum at which maximal binding occurred” value is given as 10% and the “Percentage of serum at which minimum binding occurred” value came out at 2%. In addition, in assay [1] (10% autologous serum, 37° C., two hours), the “Concentration at which percentage of BfD IV positive cells reached a plateau” value amounted to 200 µg/mL. Besides, the “Binding (MFI and percentage of BfD IV positive cells)” value in assay [1] (100, 200, 400 μg/mL, 10% autologous serum, 37° C., two hours) was “bound to both neutrophils and monocytes”. The “Incubation temperature of maximal binding” value in assay [1] (two hours at 4° C., room temperature or 37° C., 10% serum) came to 37 °C. Besides, the “Binding in the presence of heat inactivated (HI) serum” value in assay [2] (10% HI serum vs regular serum, 200 μg/mL) is listed as “abrogated”. For the same substance, in assay [2] (based on MFI, five donors), the “Average percentage of binding inhibition in HI serum” value is 89% and the “Range of percentage of binding inhibition in HI serum” value is on record as 71-100%.
